Laboratory results published in patent US12173135B2, “Plasticizer and plastic product” (LARGAN MEDICAL CO., LTD., priority 2019, dated 2024).

Assay: biodegradation tests (ASTM 5338) of the plasticizers
Method: The biodegradation tests (ASTM 5338) of the plasticizers with different molecular structures are performed below. The comparison, the 29th Example and the 30th Example are tested, and the degrees of degradation under different days are listed in the following table.

In the case of `CCCCCCCCOC(=O)CC(N)C(=O)OCCCCCCCC` (racemic) [29th Example], the “Degree of Degradation (%)” value (day 0) is reported as 0%, the “Degree of Degradation (%)” value (day 3) is reported as 6.70% and the “Degree of Degradation (%)” value (day 7) is reported as 8.53%. The “Degree of Degradation (%)” value (day 12) was 20.53%, the “Degree of Degradation (%)” value (day 15) was 26.53% and the “Degree of Degradation (%)” value (day 19) was 35.22%. The “Degree of Degradation (%)” value (day 24) was 44.08%, the “Degree of Degradation (%)” value (day 28) was 48.75% and the “Degree of Degradation (%)” value (day 33) was 51.62%. For the same compound, the “Degree of Degradation (%)” value (day 36) was 53.72%, the “Degree of Degradation (%)” value (day 40) was 55.78% and the “Degree of Degradation (%)” value (day 45) was 57.19%. For the same compound, the “Degree of Degradation (%)” value (day 49) was 58.41%, the “Degree of Degradation (%)” value (day 54) was 59.35% and the “Degree of Degradation (%)” value (day 58) was 59.61%. For the same compound, the “Degree of Degradation (%)” value (day 63) was 59.85%, the “Degree of Degradation (%)” value (day 67) was 60.34% and the “Degree of Degradation (%)” value (day 71) was 62.58%. The “Degree of Degradation (%)” value (day 75) was 63.96%, the “Degree of Degradation (%)” value (day 81) was 63.75% and the “Degree of Degradation (%)” value (day 85) was 62.72%. The “Degree of Degradation (%)” value (day 89) was 64.14%, the “Degree of Degradation (%)” value (day 93) was 65.04% and the “Degree of Degradation (%)” value (day 98) was 65.04%. The “Degree of Degradation (%)” value (day 102) was 66.44%, the “Degree of Degradation (%)” value (day 105) was 66.44% and the “Degree of Degradation (%)” value (day 109) was 66.25%. For the same compound, the “Degree of Degradation (%)” value (day 114) was 66.04%, the “Degree of Degradation (%)” value (day 118) was 66.80% and the “Degree of Degradation (%)” value (day 124) was 66.80%. The “Degree of Degradation (%)” value (day 128) was 67.01%, the “Degree of Degradation (%)” value (day 132) was 66.81% and the “Degree of Degradation (%)” value (day 137) was 66.81%. The “Degree of Degradation (%)” value (day 140) was 66.81%, the “Degree of Degradation (%)” value (day 144) was 66.01% and the “Degree of Degradation (%)” value (day 147) was 64.81%. For the same compound, the “Degree of Degradation (%)” value (day 151) was 64.62%, the “Degree of Degradation (%)” value (day 155) was 64.23% and the “Degree of Degradation (%)” value (day 158) was 65.50%. For the same compound, the “Degree of Degradation (%)” value (day 161) was 66.30%, the “Degree of Degradation (%)” value (day 165) was 66.92% and the “Degree of Degradation (%)” value (day 168) was 65.84%. For the same compound, the “Degree of Degradation (%)” value (day 172) was 67.51%, the “Degree of Degradation (%)” value (day 175) was 69.97% and the “Degree of Degradation (%)” value (day 179) was 71.93%.
In the case of `O=C(OCCOC(=O)c1ccccc1O)c1ccccc1O` [30th Example], the “Degree of Degradation (%)” value (day 0) is reported as 0%, the “Degree of Degradation (%)” value (day 3) is reported as 3.21% and the “Degree of Degradation (%)” value (day 7) is reported as 1.97%. The “Degree of Degradation (%)” value (day 12) was 1.09%, the “Degree of Degradation (%)” value (day 15) was 1.87% and the “Degree of Degradation (%)” value (day 19) was 4.13%. For the same compound, the “Degree of Degradation (%)” value (day 24) was 6.63%, the “Degree of Degradation (%)” value (day 28) was 13.13% and the “Degree of Degradation (%)” value (day 33) was 17.63%. For the same compound, the “Degree of Degradation (%)” value (day 36) was 26.70%, the “Degree of Degradation (%)” value (day 40) was 33.47% and the “Degree of Degradation (%)” value (day 45) was 38.10%. For the same compound, the “Degree of Degradation (%)” value (day 49) was 43.93%, the “Degree of Degradation (%)” value (day 54) was 47.28% and the “Degree of Degradation (%)” value (day 58) was 60.14%. The “Degree of Degradation (%)” value (day 63) was 67.90%, the “Degree of Degradation (%)” value (day 67) was 69.50% and the “Degree of Degradation (%)” value (day 71) was 71.37%. For the same compound, the “Degree of Degradation (%)” value (day 75) was 72.99%, the “Degree of Degradation (%)” value (day 81) was 73.19% and the “Degree of Degradation (%)” value (day 85) was 73.19%. The “Degree of Degradation (%)” value (day 89) was 73.53%, the “Degree of Degradation (%)” value (day 93) was 78.89% and the “Degree of Degradation (%)” value (day 98) was 78.51%. For the same compound, the “Degree of Degradation (%)” value (day 102) was 78.14%, the “Degree of Degradation (%)” value (day 105) was 78.50% and the “Degree of Degradation (%)” value (day 109) was 81.63%. The “Degree of Degradation (%)” value (day 114) was 81.09%, the “Degree of Degradation (%)” value (day 118) was 84.55% and the “Degree of Degradation (%)” value (day 124) was 84.55%. The “Degree of Degradation (%)” value (day 128) was 86.04%, the “Degree of Degradation (%)” value (day 132) was 86.55% and the “Degree of Degradation (%)” value (day 137) was 86.81%. The “Degree of Degradation (%)” value (day 140) was 86.58%, the “Degree of Degradation (%)” value (day 144) was 86.58% and the “Degree of Degradation (%)” value (day 147) was 87.69%. The “Degree of Degradation (%)” value (day 151) was 88.54%, the “Degree of Degradation (%)” value (day 155) was 88.54% and the “Degree of Degradation (%)” value (day 158) was 87.80%. The “Degree of Degradation (%)” value (day 161) was 87.80%, the “Degree of Degradation (%)” value (day 165) was 87.80% and the “Degree of Degradation (%)” value (day 168) was 88.40%. For the same compound, the “Degree of Degradation (%)” value (day 172) was 89.55%, the “Degree of Degradation (%)” value (day 175) was 89.91% and the “Degree of Degradation (%)” value (day 179) was 91.46%.
